Data on one substance can be found in patent US12138254B2, “Chronic nightly dosing of lasmiditan for migraine prevention” (Eli Lilly and Company, priority 2018, dated 2024).

In the test the test system is dural plasma protein extravasation. The test can be described thus: Trigeminal stimulation-induced dural plasma protein extravasation (PPE) in rats. It is filed as in vivo, Sprague-Dawley rats. From the text: Migraine is a painful condition thought to involve neurogenic inflammation of the dural membrane and activation of the trigeminal nervous system. The 5-HT1F receptor is widely expressed in the CNS and peripheral nerves, including the trigeminal ganglia, dorsal root ganglia and trigeminal nucleus caudalis. Plasma protein extravasation (PPE), one component of neurogenic inflammation, can be induced in the dura of rats by electrically stimulating the trigeminal ganglion. Considering the role of the trigeminal nerve in the physiology of migraine, this study is useful to characterize the ability of lasmiditan-hemisuccinate to block plasma protein extravasation in the dura of rats following electrical stimulation of the trigeminal ganglion.
To investigate the potential of lasmiditan to modify the dysfunction in the target tissue, the duration of effect following a single oral dose of lasmiditan-hemisuccinate was also determined. Electrical stimulation of the trigeminal ganglion of rats and guinea pigs can be used to induce neurogenic inflammation in the meninges (dura). Briefly, unilateral electrical stimulation of either the left or right trigeminal ganglion using electrodes implanted stereotaxically is used to induce ipsilateral neurogenic inflammation and the increased extravasation of plasma proteins.
Lasmiditan-hemisuccinate is dissolved in sterile water. All doses of lasmiditan are reported as free base equivalent doses, accounting for the weight of the salt. Envigo Sprague-Dawley, Sprague-Dawley male rats (250-350 grams, n=4/group) are fasted overnight prior to dosing. The animals are orally gavaged (2 mL/kg dose volume) with test compound or vehicle one hour prior to stimulation time and returned to their cages with only water available. Approximately 50 minutes post-dosing, the rats are anesthetized with Nembutal (65 mg/kg, ip.) and implanted with stainless steel stimulating electrodes (Rhodes Medical Systems, Inc.) to a depth of 9.2 mm. from the dura. The femoral vein is exposed and fluorescein isothiocyanate-labeled bovine serum albumin (FITC-BSA) (20 mg/kg, iv.), is injected into the femoral vein 2 minutes prior to stimulation. The FITC-BSA functions as a marker for protein extravasation. The left trigeminal ganglion is stimulated for 5 minutes at a current intensity of 1.0 mA (5 Hz, 5 msec pulse duration) with a Model S48 Grass Instrument Stimulator with PSIU6 photoelectric isolation unit (Grass-Telefactor). Five minutes following stimulation, a blood sample is collected by cardiac puncture and the rats are sacrificed by exsanguination with 40 ml of saline. One milliliter of blood is collected and placed in a 1.5 ml EDTA coated tube (Fisher Cat. #540734) on ice. Plasma is separated via centrifugation at 10,000 rpm (941 g) for thirty minutes at 4° C. The top of the skull is removed to collect the brain and dural membranes. The brain and plasma samples are frozen at −80° C. until thawed for compound quantification. The membrane samples are removed from both hemispheres, rinsed with water, and spread flat on microscope slides. The slides are dried for 15 minutes on a slide warmer, then the tissues are cover-slipped with a 70% glycerol/water solution. A fluorescence microscope (Zeiss) equipped with a grating monochromator and a spectrophotometer is used to quantify the amount of FITC-BSA dye in each dural sample. The extravasation induced by electrical stimulation of the trigeminal ganglion is an ipsilateral effect (i.e. occurs only on the side of the dura in which the trigeminal ganglion was stimulated). This allows the other (unstimulated) half of the dura to be used as the control. The ratio of extravasation in the dura from the stimulated side versus the unstimulated side is calculated and reported as the extravasation ratio for each animal. The mean extravasation ratio and standard error of the mean (SEM) are calculated for each treatment group. Controls yield a ratio of approximately 1.8. […]

For the substance “2,4,6-trifluoro-N-[6-(1-methyl-piperidine-4-carbonyl)-pyridin-2-yl]-benzamide hemi-succinate salt [Lasmiditan-hemisuccinate]”, the “inhibition of dural plasma protein extravasation vs vehicle” value by setting is: (1 mg/kg po, 1 hour post-dose) “statistically different vs vehicle”; (10 mg/kg po, 1 hour post-dose) “statistically different vs vehicle”; (single 10 mg/kg po, 24 hours post-dose) “significantly blocks”; (single 10 mg/kg po, 48 hours post-dose) “not effective”. The “inhibition of dural plasma protein extravasation” value (one hour following oral administration to rats, 0.1-10 mg/kg) is listed as “dose-dependently inhibits”.
